Like-named read-outs stand apart in the source and are kept apart here.
Tests used:
[1] = molecular target: T1, HCV NS3 helicase NS3h_1b(con1) (Hepatitis C virus genotype 1b, UniProt Q9WMX2); assay: biochemical; assay type: biochemical, hepatitis C virus genotype 1b(con1)
T1 construct: truncated C-terminally His-tagged NS3 proteins lacking the N-terminal protease, called NS3h; His-tag (C); made in house
Outline: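 Molecular beacon helicase assay with His-tagged recombinant NS3 and a Cy5/IBRQ-labelled partially duplex DNA substrate (25 bp) or Tye665-labelled RNA substrate (19 bp). Reactions started with 1 mM ATP. Screening read fluorescence before and 30 min after ATP (ex 643/em 670 nm). For IC50, 5% v/v DMSO was present, initial velocities came from first-order decay fits, and a Hill equation was applied.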

[2] = tested on: HCV RLuc subgenomic replicon (genotype 1b) in Huh-7.5 cells; assay: HCV subgenomic replicon assay (Renilla luciferase); assay type: cell-based, hepatitis C virus; settings: Hepatitis C virus
Outline: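 Huh-7.5 cells stably harbouring the genotype 1b HCV RLuc subgenomic replicon were treated with compound at 10 μM final (0.5% DMSO) for 72 h at 37 °C. Replication was assessed as Renilla luciferase activity in lysates relative to DMSO-treated cells.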

[3] = genotype 1b (con1), read-out: Target Potency MBHA (IC50 avg., μM) 1b (con1)
[4] = standard HCV helicase MBHA (Table 9), read-out: DNA Unwinding IC50
[5] = Huh7.5, 10 μM, read-out: Replicon (% Inhibition @ 10 μM)
[6] = MBHA, DNA unwinding, mean ± SD of three titrations, read-out: Helicase IC50
[7] = Huh7.5, 10 μM compound, triplicate, average ± SD, read-out: HCV replication (% Inh.)

T1 sequence (Q9WMX2 1192-1657): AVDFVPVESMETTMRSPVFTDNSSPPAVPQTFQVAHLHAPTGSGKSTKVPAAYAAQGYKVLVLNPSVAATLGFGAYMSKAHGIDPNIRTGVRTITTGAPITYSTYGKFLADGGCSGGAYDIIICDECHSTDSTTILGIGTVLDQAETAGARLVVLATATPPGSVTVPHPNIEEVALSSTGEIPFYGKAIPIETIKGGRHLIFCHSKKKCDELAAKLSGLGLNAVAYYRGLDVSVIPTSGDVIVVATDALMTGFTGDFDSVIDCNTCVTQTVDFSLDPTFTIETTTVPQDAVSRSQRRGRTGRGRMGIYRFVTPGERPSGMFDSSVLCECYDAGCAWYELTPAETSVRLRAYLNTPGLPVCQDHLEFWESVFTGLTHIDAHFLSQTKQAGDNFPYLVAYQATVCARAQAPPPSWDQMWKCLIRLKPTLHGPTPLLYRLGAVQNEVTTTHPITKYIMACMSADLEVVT

Compound | IC50 [1, 3] [µM] | IC50 [1, 4] [µM] | inhibition at 10 µM [2, 5] [%] | IC50 [1, 6] [µM] | inhibition at 10 µM [2, 7] [%]
Cc1ccc2nc(-c3ccc4nc(-c5ccc(NCc6ccccc6)cc5)sc4c3)sc2c1S(=O)(=O)O [Compound 53] | 11 ± 1.6 | 11 ± 2 | -64 ± 25 |  | 
Cc1ccc2nc(-c3ccc4nc(-c5ccc(NC(=O)c6cccc(C(F)(F)F)c6F)cc5)sc4c3)sc2c1S(=O)(=O)O [Compound 22, 2′-(4-(2-fluoro-3-(trifluoromethyl)benzamido)phenyl)-6-methyl-[2,6′-bibenzo[d]thiazole]-7-sulfonic acid] | 9.2 ± 3 | 9 ± 3 | 48 ± 18 | 9.2 ± 3 | 48 ± 18
Cc1ccc2nc(-c3ccc4nc(-c5ccc(NC(=O)c6ccc7nc(-c8ccc(NC(=O)OCC9c%10ccccc%10-c%10ccccc%109)cc8)sc7c6)cc5)sc4c3)sc2c1S(=O)(=O)O.N [Compound 36] | 4 ± 2.4 | 4 ± 2 | 44 ± 9 | 4 ± 2.4 | 42 ± 5

Reference: patent publication US9464064B2, “HCV helicase inhibitors and methods of use thereof” (University of Kansas, priority 2011, dated 2016)
